Like-named read-outs stand apart in the source and are kept apart here.
How the values were obtained:
human androgen receptor [1] = molecular target: T1, human androgen receptor (Homo sapiens, UniProt P10275); test: Androgen receptor reporter gene assay, antagonist action against DHT (MMTV-Luc, pSG5/hAR and Renilla Luc vectors transfected into HeLa cells, dual-luciferase); assay type: cell-based
T1 construct: expressed in transfected cells; host or cells: HeLa cells
T1 sequence (P10275 1-920): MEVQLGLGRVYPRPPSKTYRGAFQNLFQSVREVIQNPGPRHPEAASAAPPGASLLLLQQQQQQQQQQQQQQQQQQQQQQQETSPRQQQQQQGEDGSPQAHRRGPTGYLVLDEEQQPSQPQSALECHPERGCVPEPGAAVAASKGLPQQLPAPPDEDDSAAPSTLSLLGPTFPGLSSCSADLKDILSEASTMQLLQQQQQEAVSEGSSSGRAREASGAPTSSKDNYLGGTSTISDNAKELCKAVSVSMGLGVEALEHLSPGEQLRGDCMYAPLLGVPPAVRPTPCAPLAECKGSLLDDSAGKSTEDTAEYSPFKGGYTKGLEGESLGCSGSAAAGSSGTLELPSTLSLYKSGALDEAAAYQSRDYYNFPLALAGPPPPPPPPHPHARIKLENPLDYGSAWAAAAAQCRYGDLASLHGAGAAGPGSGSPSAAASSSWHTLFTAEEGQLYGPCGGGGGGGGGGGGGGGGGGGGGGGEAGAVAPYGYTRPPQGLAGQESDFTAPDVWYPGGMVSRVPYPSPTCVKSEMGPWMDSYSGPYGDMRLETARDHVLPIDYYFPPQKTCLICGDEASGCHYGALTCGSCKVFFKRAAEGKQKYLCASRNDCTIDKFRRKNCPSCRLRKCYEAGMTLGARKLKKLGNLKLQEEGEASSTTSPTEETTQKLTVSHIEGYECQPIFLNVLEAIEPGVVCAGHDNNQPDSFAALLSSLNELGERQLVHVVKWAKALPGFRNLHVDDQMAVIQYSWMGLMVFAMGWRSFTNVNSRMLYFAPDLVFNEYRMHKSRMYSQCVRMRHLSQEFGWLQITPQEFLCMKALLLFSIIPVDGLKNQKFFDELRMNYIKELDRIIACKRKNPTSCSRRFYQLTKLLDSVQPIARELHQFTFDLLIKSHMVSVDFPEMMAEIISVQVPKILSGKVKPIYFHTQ
Description: The expression "acting as antagonist" means that in the following androgen receptor gene assay, the transcriptional activity value of 0.1 nmol/L of dihydrotestosterone (DHT) is inhibited to 0 - 50% at any concentration of 0.1 nmol/L - 10 µmol/L:
Twenty-four hours before transfection, 1.0 x 10^5 HeLa cells are cultured in phenol red free DMEM/5% DCC-FBS on 12-well microplates. Five hundred nanograms/well of MMTV-Luc vector, 100 ng/well of pSG5/hAR and 5 ng/well of Renilla Luc vector are transfected into the HeLa cells. The transfection is performed in a liquid culture of the phenol red free DMEM using […] of lipofectoamine. Nine hours after the transfection, the liquid culture is replaced by phenol red free DMEM/3% DCC-FBS containing 0.1 nmol/L of DHT and […] of a compound of the invention which is represented by the general formula (I) or the substance of the invention which acts as antagonist against but not as agonist for the androgen receptor. The transcriptional activity value is measured 48 hours after the replacement of the liquid culture. Transcriptional activity is measured with a dual-luciferase reporter assay system. The transcriptional activity value is defined as the value for firefly luciferase divided by the value for sea pansy luciferase. […] 270, pp. 19998-20003, 1995.
(§1) Twenty-four hours before transfection, 1.0 x 10^5 HeLa cells were cultured in phenol red free DMEM/5% DCC-FBS on 12-well microplates. Five hundred nanograms/well of MMTV-Luc vector, 100 ng/well of pSG5/hAR and 5 ng/well of Renilla Luc vector were transfected into the HeLa cells. The transfection was performed in a liquid culture of the phenol red free DMEM using […] of lipofectoamine. […] The transcriptional activity value was measured 48 hours after the replacement of the liquid culture. Transcriptional activity was measured with a dual-luciferase reporter assay system. The transcriptional activity value was calculated as the value for firefly luciferase divided by the value for sea pansy luciferase.
The compound was added at concentrations of 1, 10, 100, 1000 and 10000 nmol/L and at each of these concentrations, measurement was done in the presence of DHT (0.1 nmol/L). Antagonist activity = Transcriptional activity when the compound was added/Transcriptional activity when the compound was not added x 100 [formula]

human androgen receptor [2] = molecular target: T1, human androgen receptor; test: Androgen receptor reporter gene assay, agonist action (MMTV-Luc, pSG5-hAR and Renilla Luc vectors transfected into HeLa cells, dual-luciferase); assay type: cell-based; conditions: for FI5 value: concentration showing a transcriptional activity five times that without compound, tested at 1, 10, 100, 1000 and 10000 nmol/L
Excerpt: Speaking of the substance of the invention which acts as antagonist against but not as agonist for the androgen receptor, the expression "not acting as agonist" means that in the following androgen receptor gene assay, the transcriptional activity value of the substance at any concentration of 0.1 nmol/L - 10 µmol/L is from one to five times the transcriptional activity value for no addition of the substance which is taken as unity:
Twenty-four hours before transfection, 1.0 x 10^5 HeLa cells (purchased from Dainippon Pharmaceutical Co., Ltd.) are cultured in phenol red free Dulbecco's modified Eagle medium (DMEM) containing 5% of charcoal-treated FBS (DCC-FBS) in 12-well microplates. Five hundred nanograms/well of MMTV-Luc vector (the reporter plasmid of luciferase having mouse tumor long terminal repeats containing the androgen response element: GM-CAT vector (A.T.C.C. No. 67282) purchased from A.T.C.C. provided that the chloramphenicol acetyl transferase gene was replaced by the firefly luciferase gene), 100 ng/well of pSG5-hAR (the expression vector of the human androgen receptor which harbors the androgen receptor gene under the control of SV40 promoter) and 5 ng/well of Renilla Luc vector (a vector for internal standard incorporating the sea pansy luciferase gene) are transfected into the HeLa cells. The transfection is performed in a liquid culture of the phenol red free DMEM using […] of lipofectoamine (GibcoBRL). Nine hours after the transfection, the liquid culture is replaced by phenol red free DMEM/3% DCC-FBS containing 10 µmol/L of a compound of the invention which is represented by the general formula (I) or the substance of the invention which acts as antagonist against but not as agonist for the androgen receptor. The transcriptional activity value is measured 48 hours after the replacement of the liquid culture. Transcriptional activity is measured with a dual-luciferase reporter assay system (Promega). The transcriptional activity value is defined as the value for firefly luciferase divided by the value for sea pansy luciferase. […] 270, pp. 19998-20003, 1995.
as §1, with “pSG5-hAR” for “pSG5/hAR”
The compound was added at concentrations of 1, 10, 100, 1000 and 10000 nmol/L. Agonist activity = Transcriptional activity when the compound was added/Transcriptional activity when the compound was not added [formula]

[3] = concentration giving 50% decrease in the transcriptional activity of DHT 0.1 nmol/L, tested at 1, 10, 100, 1000 and 10000 nmol/L, read-out: IC50 value

| Molecule | IC50 (human androgen receptor [1]; [3]) [µM] | IC50 (human androgen receptor [1]) [µM] | other results |
| --- | --- | --- | --- |
| C[C@]12CCC(=O)C[C@@H]1C[C@@H](CCCCCCCC(=O)NCCO)[C@@H]1[C@@H]2CC[C@]2(C)[C@@H](O)CC[C@@H]12 (stereo in doubt) [Example 64, 17β-hydroxy-7α-[7-{N-(2-hydroxyethyl]-aminocarbonyl}heptyl]-5α-androstan-3-one] | 0.809 | – | – |
| CNC(=O)CCCOc1cccc(CCC[C@@H]2C[C@H]3CC(=O)CC[C@]3(C)[C@H]3CC[C@]4(C)[C@@H](O)CC[C@H]4[C@H]23)c1 (stereo in doubt) [Example 164, 17β-hydroxy-7α-[3-[3-{3-(N-methylaminocarbonyl)propoxy}phenyl]propyl]-5α-androstan-3-one] | – | 0.291 | FI5 value (human androgen receptor [2]): ND (even when the compound was added at a concentration of 10000 nM, the transcriptional activity of the compound-treated group was less than 5 times the transcriptional activity of the control group, making it impossible to compute the FI5 value) |
| CCCCN(C)C(=O)CCCCCCCCCC[C@@H]1CC2=CC(=O)CC[C@]2(C)[C@H]2CC[C@]3(C)[C@@H](O)CC[C@H]3[C@H]12 [EM-101, reference compound] | 2.62 | – | – |
| CN(C)C(=O)CCCCCCC[C@@H]1C[C@H]2CC(=O)CC[C@]2(C)[C@H]2CC[C@]3(C)[C@@H](O)CC[C@H]3[C@H]12 [Example 9, 17β-hydroxy-7α-{7-(N,N-dimethylaminocarbonyl)-heptyl}-5α-androstan-3-one] | – | 0.451 | – |
| CCNC(=O)CCCCCCC[C@@H]1C[C@H]2CC(=O)CC[C@]2(C)[C@H]2CC[C@]3(C)[C@@H](O)CC[C@H]3[C@H]12 [Example 10] | 0.937 | – | – |
| CC(C)NC(=O)CCCCCCCC1CC2CC(=O)CCC2(C)C2CCC3(C)C(O)CCC3C12 (stereo not drawn) [Example 14] | – | 1.98 | FI5 value (human androgen receptor [2]): ND (even when the compound was added at a concentration of 10000 nM, the transcriptional activity of the compound-treated group was less than 5 times the transcriptional activity of the control group, making it impossible to compute the FI5 value) |
| CCCCN(C)C(=O)CCCCCCCC1CC2CC(=O)CCC2(C)C2CCC3(C)C(O)CCC3C12 (stereo not drawn) [Example 18] | – | 0.342 | – |
| CCN(CC)C(=O)CCCCCCCC1CC2CC(=O)CCC2(C)C2CCC3(C)C(O)CCC3C12 (stereo not drawn) [Example 19] | – | 0.295 | – |
| CC12CCC3C(C(CCCCCCCC(=O)NCc4ccco4)CC4CC(=O)CCC43C)C1CCC2O (stereo not drawn) [Example 23] | 1.3 | – | – |
| CNC(=O)CCCCCCCC1CC2CC(=O)CCC2(C)C2CCC3(C)C(O)CCC3C12 (stereo not drawn) [Example 24] | – | 0.477 | – |
| CCN(C)C(=O)CCCCCCCC1CC2CC(=O)CCC2(C)C2CCC3(C)C(O)CCC3C12 (stereo not drawn) [Example 25] | 0.415 | – | – |
| CCCN(C)C(=O)CCCCCCCC1CC2CC(=O)CCC2(C)C2CCC3(C)C(O)CCC3C12 (stereo not drawn) [Example 26] | 1.13 | – | – |
| CC(C)N(C)C(=O)CCCCCCCC1CC2CC(=O)CCC2(C)C2CCC3(C)C(O)CCC3C12 (stereo not drawn) [Example 27] | – | 0.421 | – |
| CC12CCC3C(C(CCCCCCCC(=O)N4CCCC4)CC4CC(=O)CCC43C)C1CCC2O (stereo not drawn) [Example 29] | – | 0.304 | FI5 value (human androgen receptor [2]): ND (even when the compound was added at a concentration of 10000 nM, the transcriptional activity of the compound-treated group was less than 5 times the transcriptional activity of the control group, making it impossible to compute the FI5 value) |
| CN(C)C(=O)CCCCCCCCCC1CC2CC(=O)CCC2(C)C2CCC3(C)C(O)CCC3C12 (stereo not drawn) [Example 42] | 0.342 | – | – |
| CCN(CC)C(=O)CCCCCCCCCC1CC2CC(=O)CCC2(C)C2CCC3(C)C(O)CCC3C12 (stereo not drawn) [Example 43] | 1.3 | – | – |
| CCCCN(C)C(=O)CCCCCCCCCC1CC2CC(=O)CCC2(C)C2CCC3(C)C(O)CCC3C12 (stereo not drawn) [Example 46] | 1.75 | – | – |
| CCCN(C)C(=O)CCCCCCCCCC1CC2CC(=O)CCC2(C)C2CCC3(C)C(O)CCC3C12 (stereo not drawn) [Example 50] | 0.737 | – | – |
| CC12CCC3C(C(CCCCCCCCCC(=O)N4CCOCC4)CC4CC(=O)CCC43C)C1CCC2O (stereo not drawn) [Example 51] | 0.474 | – | – |
| CN(C)C(=O)CCCCCCCCCCC1CC2CC(=O)CCC2(C)C2CCC3(C)C(O)CCC3C12 (stereo not drawn) [Example 52] | – | 0.277 | FI5 value (human androgen receptor [2]): ND (even when the compound was added at a concentration of 10000 nM, the transcriptional activity of the compound-treated group was less than 5 times the transcriptional activity of the control group, making it impossible to compute the FI5 value) |
| CCCNC(=O)CCCCCCCC1CC2CC(=O)CCC2(C)C2CCC3(C)C(O)CCC3C12 (stereo not drawn) [Example 65] | 1.83 | – | – |
| CC12CCC3C(C(CCCCCCCC(=O)NCc4ccccc4)CC4CC(=O)CCC43C)C1CCC2O (stereo not drawn) [Example 73] | 1.1 | – | – |
| CCN(CC)C(=O)CCCCCCCCCC1CC2(C)C(O)CCC2C2CCC3CC(=O)CCC3(C)C12 (stereo not drawn) [Example 96] | 1.6 | – | – |
| CC12CCC3C(C(CCCc4cccc(OCCCCC(=O)N5CCCC5)c4)CC4CC(=O)CCC43C)C1CCC2O (stereo not drawn) [Example 167] | 0.475 | – | – |
| CN(C)C(=O)CCCOc1cccc(CCCC2CC3CC(=O)CCC3(C)C3CCC4(C)C(O)CCC4C23)c1 (stereo not drawn) [Example 168] | 0.54 | – | – |
| bicaltamide | – | – | transcriptional activity value relative to the case of non-addition (human androgen receptor [2]; Example 1, HeLa cells, 48 hours): more than five times; acting as agonist (human androgen receptor [2]; at a concentration of 10 µmol/L): act as agonist; FI5 value (human androgen receptor [2]): 767 nM; agonist action for the androgen receptor mediated transcriptional activity (human androgen receptor [2]; summary of the results of Example 180): exhibit agonist action |
